Experimental data published in patent US8063071B2 (GlaxoSmithKline, LLC, priority 2007, dated 2011).
pIC50: −log10 of the molar value. Structures can show the parent of a compound that is named as a salt.

What was measured:
[1] = target: T1, Recombinant human IKKβ (residues 1-737) (Homo sapiens, UniProt O14920); experiment: IKK2 assay (TR-FRET); assay type: biochemical; details: ATP 1 μM final, read-out: pIC50 against IKK2 (converted)
T1 construct: Recombinant human IKKβ (residues 1-737); GST (C); made in house
T1 sequence (O14920 1-737): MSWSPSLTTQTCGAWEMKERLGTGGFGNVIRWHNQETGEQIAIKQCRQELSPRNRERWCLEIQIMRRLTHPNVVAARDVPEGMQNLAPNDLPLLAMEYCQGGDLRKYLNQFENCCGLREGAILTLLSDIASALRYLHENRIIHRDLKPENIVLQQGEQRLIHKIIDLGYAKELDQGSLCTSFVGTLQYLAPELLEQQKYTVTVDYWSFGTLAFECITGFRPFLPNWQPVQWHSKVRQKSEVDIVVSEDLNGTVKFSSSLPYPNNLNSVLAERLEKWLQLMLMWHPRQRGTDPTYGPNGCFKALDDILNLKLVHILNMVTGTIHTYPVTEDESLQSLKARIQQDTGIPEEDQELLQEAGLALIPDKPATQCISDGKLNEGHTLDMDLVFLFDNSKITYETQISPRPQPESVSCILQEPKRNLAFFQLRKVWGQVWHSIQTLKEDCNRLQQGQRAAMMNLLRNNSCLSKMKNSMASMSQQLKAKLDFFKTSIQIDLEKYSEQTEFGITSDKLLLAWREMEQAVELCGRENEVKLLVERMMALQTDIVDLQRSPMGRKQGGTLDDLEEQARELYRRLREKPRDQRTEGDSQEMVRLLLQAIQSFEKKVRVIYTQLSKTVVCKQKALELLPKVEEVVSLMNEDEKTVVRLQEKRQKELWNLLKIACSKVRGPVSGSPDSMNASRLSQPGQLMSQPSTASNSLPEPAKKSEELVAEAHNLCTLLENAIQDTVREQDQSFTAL
Summary of the method: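 TR-FRET readout (665 nm over 620 nm Eu reference) of GST-IB Ser32/36 phosphorylation after 60 min detection. Reaction: 1 μM ATP, 25 nM substrate, 0.5-5 nM GST-fused IKKβ 1-737 from baculovirus, pH 7.4 HEPES buffer, 1.7% DMSO, 15 min room temperature, EDTA-terminated.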

[2] = system: human monocyte stimulated cytokine production (TNF-α); experiment: Monocyte assay (LPS-stimulated TNF-α production); assay type: cell-based; details: for pIC50: 24 h, 200 ng/mL LPS, TNF-α by ELISA; for inhibition at 0.3 µM: read-out: inhibition at 300 nM in the monocyte assay
Summary of the method: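 TNF-α release was measured by ELISA after 24 hrs at 37 C. Cells were stimulated with 200 ng/mL E. coli LPS, with compound added 30 minutes beforehand (0.1% DMSO vehicle). Cells were Ficoll/MACS-isolated CD14+ human monocytes adhered at 1×10^6 cells/mL, and viability was checked by trypan blue.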

Structure (SMILES)	IC50 [1]	pIC50 [2]	inhibition at 0.3 µM [2]
CCS(=O)(=O)N1CCC(c2c[nH]c3c(C(N)=O)cc(-c4cc(F)cc(CNCc5ccco5)c4)cc23)CC1 [Example 328, 3-[1-(ethylsulfonyl)-4-piperidinyl]-5-(3-fluoro-5-{[(2-furanylmethyl)amino]methyl}phenyl)-1H-indole-7-carboxamide trifluoroacetate]	≤ 10 µM		0 to 60%
CCS(=O)(=O)N1CCC(c2c[nH]c3c(C(N)=O)cc(-c4cc(F)cc(CNCc5ccc(C)o5)c4)cc23)CC1 [Example 330, 3-[1-(ethylsulfonyl)-4-piperidinyl]-5-[3-fluoro-5-({[(5-methyl-2-furanyl)methyl]amino}methyl)phenyl]-1H-indole-7-carboxamide trifluoroacetate]	≤ 10 µM	< 6.00	
CCS(=O)(=O)N1CCC(c2c[nH]c3c(C(N)=O)cc(-c4cc(CNCC(C)C)ccc4F)cc23)CC1 [Example 335, 3-[1-(ethylsulfonyl)-4-piperidinyl]-5-(2-fluoro-5-{[(2-methylpropyl)amino]methyl}phenyl)-1H-indole-7-carboxamide trifluoroacetate]	≤ 10 µM	≥ 5.82	
CCS(=O)(=O)N1CCC(c2c[nH]c3c(C(N)=O)cc(-c4cc(CNCC(C)(C)C)ccc4F)cc23)CC1 [Example 336, 5-(5-{[(2,2-dimethylpropyl)amino]methyl}-2-fluorophenyl)-3-[1-(ethylsulfonyl)-4-piperidinyl]-1H-indole-7-carboxamide trifluoroacetate]	≤ 10 µM	≥ 5.82	
CCS(=O)(=O)N1CCC(c2c[nH]c3c(C(N)=O)cc(-c4cc(CN[C@@H](C)C(C)C)ccc4F)cc23)CC1 [Example 337, 5-[5-({[(1S)-1,2-dimethylpropyl]amino}methyl)-2-fluorophenyl]-3-[1-(ethylsulfonyl)-4-piperidinyl]-1H-indole-7-carboxamide trifluoroacetate]	≤ 10 µM	≥ 5.82	
CCS(=O)(=O)N1CCC(c2c[nH]c3c(C(N)=O)cc(-c4cc(CN[C@H](C)C(C)C)ccc4F)cc23)CC1 [Example 338, 5-[5-({[(1R)-1,2-dimethylpropyl]amino}methyl)-2-fluorophenyl]-3-[1-(ethylsulfonyl)-4-piperidinyl]-1H-indole-7-carboxamide trifluoroacetate]	≤ 10 µM	< 6.00	
CCS(=O)(=O)N1CCC(c2c[nH]c3c(C(N)=O)cc(-c4cc(CNCC5CC5)ccc4F)cc23)CC1 [Example 339, 5-(5-{[(cyclopropylmethyl)amino]methyl}-2-fluorophenyl)-3-[1-(ethylsulfonyl)-4-piperidinyl]-1H-indole-7-carboxamide trifluoroacetate]	≤ 10 µM	< 6.00	
CCS(=O)(=O)N1CCC(c2c[nH]c3c(C(N)=O)cc(-c4cc(CN5CCCC5)ccc4F)cc23)CC1 [Example 340, 3-[1-(ethylsulfonyl)-4-piperidinyl]-5-[2-fluoro-5-(1-pyrrolidinylmethyl)phenyl]-1H-indole-7-carboxamide trifluoroacetate]	≤ 10 µM	< 6.00	
CCS(=O)(=O)N1CCC(c2c[nH]c3c(C(N)=O)cc(-c4cc(CN5CCOCC5)ccc4F)cc23)CC1 [Example 341, 3-[1-(ethylsulfonyl)-4-piperidinyl]-5-[2-fluoro-5-(4-morpholinylmethyl)phenyl]-1H-indole-7-carboxamide trifluoroacetate]	≤ 10 µM	< 6.00	
CCS(=O)(=O)N1CCC(c2c[nH]c3c(C(N)=O)cc(-c4cc(CNCCOC)ccc4F)cc23)CC1 [Example 342, 3-[1-(ethylsulfonyl)-4-piperidinyl]-5-[2-fluoro-5-({[2-(methyloxy)ethyl]amino}methyl)phenyl]-1H-indole-7-carboxamide trifluoroacetate]	≤ 10 µM	≥ 5.82	
CCS(=O)(=O)N1CCC(c2c[nH]c3c(C(N)=O)cc(-c4cc(CNCCCOC)ccc4F)cc23)CC1 [Example 343, 3-[1-(ethylsulfonyl)-4-piperidinyl]-5-[2-fluoro-5-({[3-(methyloxy)propyl]amino}methyl)phenyl]-1H-indole-7-carboxamide trifluoroacetate]	≤ 10 µM	≥ 5.82	
CCS(=O)(=O)N1CCC(c2c[nH]c3c(C(N)=O)cc(-c4cccc(C5CCCN5C)c4)cc23)CC1 (centres unmarked) [Example 344, 3-[1-(ethylsulfonyl)-4-piperidinyl]-5-[3-(1-methyl-2-pyrrolidinyl)phenyl]-1H-indole-7-carboxamide trifluoroacetate]	≤ 10 µM	≥ 5.82	
CCS(=O)(=O)N1CCC(c2c[nH]c3c(C(N)=O)cc(-c4cccc(CCNCC(C)C)c4)cc23)CC1 [Example 345, 3-[1-(ethylsulfonyl)-4-piperidinyl]-5-(3-{2-[(2-methylpropyl)amino]ethyl}phenyl)-1H-indole-7-carboxamide trifluoroacetate]	≤ 10 µM		0 to 60%

Further lines, with some results ahead:

IC50 [1]	pIC50 [2]	Structure (SMILES)	inhibition at 0.3 µM [2]
≤ 10 µM	≥ 5.82	CCS(=O)(=O)N1CCC(c2c[nH]c3c(C(N)=O)cc(-c4cc(F)cc(CNCC5CCCC5)c4)cc23)CC1 [Example 323, 5-(3-{[(cyclopentylmethyl)amino]methyl}-5-fluorophenyl)-3-[1-(ethylsulfonyl)-4-piperidinyl]-1H-indole-7-carboxamide trifluoroacetate]	
≤ 10 µM	≥ 5.82	CCS(=O)(=O)N1CCC(c2c[nH]c3c(C(N)=O)cc(-c4cc(F)cc(CNCC5CCOCC5)c4)cc23)CC1 [Example 324, 3-[1-(ethylsulfonyl)-4-piperidinyl]-5-(3-fluoro-5-{[(tetrahydro-2H-pyran-4-ylmethyl)amino]methyl}phenyl)-1H-indole-7-carboxamide trifluoroacetate]	
≤ 10 µM	≥ 5.82	CCS(=O)(=O)N1CCC(c2c[nH]c3c(C(N)=O)cc(-c4cc(F)cc(CNCc5cccs5)c4)cc23)CC1 [Example 325, 3-[1-(ethylsulfonyl)-4-piperidinyl]-5-(3-fluoro-5-{[(2-thienylmethyl)amino]methyl}phenyl)-1H-indole-7-carboxamide trifluoroacetate]	
≤ 10 µM	≥ 5.82	CCS(=O)(=O)N1CCC(c2c[nH]c3c(C(N)=O)cc(-c4cc(F)cc(CNCCOC)c4)cc23)CC1 [Example 326, 3-[1-(ethylsulfonyl)-4-piperidinyl]-5-[3-fluoro-5-({[2-(methyloxy)ethyl]amino}methyl)phenyl]-1H-indole-7-carboxamide trifluoroacetate]	
≤ 10 µM	≥ 5.82	CCS(=O)(=O)N1CCC(c2c[nH]c3c(C(N)=O)cc(-c4cc(F)cc(CNCCCOC)c4)cc23)CC1 [Example 327, 3-[1-(ethylsulfonyl)-4-piperidinyl]-5-[3-fluoro-5-({[3-(methyloxy)propyl]amino}methyl)phenyl]-1H-indole-7-carboxamide trifluoroacetate]	
≤ 10 µM	≥ 5.82	CCS(=O)(=O)N1CCC(c2c[nH]c3c(C(N)=O)cc(-c4cc(F)cc(CNCCC(C)C)c4)cc23)CC1 [Example 329, 3-[1-(ethylsulfonyl)-4-piperidinyl]-5-(3-fluoro-5-{[(3-methylbutyl)amino]methyl}phenyl)-1H-indole-7-carboxamide trifluoroacetate]	
≤ 10 µM	≥ 5.82	CCS(=O)(=O)N1CCC(c2c[nH]c3c(C(N)=O)cc(-c4cccc(C5CCCN5)c4)cc23)CC1 (centres unmarked) [Example 332, 3-[1-(ethylsulfonyl)-4-piperidinyl]-5-[3-(2-pyrrolidinyl)phenyl]-1H-indole-7-carboxamide trifluoroacetate]	
≤ 10 µM	≥ 5.82	CCS(=O)(=O)N1CCC(c2c[nH]c3c(C(N)=O)cc(-c4cc(CNC)ccc4F)cc23)CC1 [Example 333, 3-[1-(ethylsulfonyl)-4-piperidinyl]-5-{2-fluoro-5-[(methylamino)methyl]phenyl}-1H-indole-7-carboxamide trifluoroacetate]	
≤ 10 µM	≥ 5.82	CCCNCc1ccc(F)c(-c2cc(C(N)=O)c3[nH]cc(C4CCN(S(=O)(=O)CC)CC4)c3c2)c1 [Example 334, 3-[1-(ethylsulfonyl)-4-piperidinyl]-5-{2-fluoro-5-[(propylamino)methyl]phenyl}-1H-indole-7-carboxamide trifluoroacetate]	
